In patent publication US8318947B2, “Comestible compositions comprising high potency savory flavorants, and processes for producing them” (Senomyx, Inc., priority 2006, dated 2012):

Biological target: T1, hT1R1/hT1R3 umami receptor expressed in an HEK293 cell line (Homo sapiens, UniProt Q7RTX0+Q7RTX1)
T1 construct: expressed in transfected cells; host or cells: HEK293 cell line derivative, clone 1-17, expression induced with mifepristone
T1 sequence (Q7RTX1 21-841): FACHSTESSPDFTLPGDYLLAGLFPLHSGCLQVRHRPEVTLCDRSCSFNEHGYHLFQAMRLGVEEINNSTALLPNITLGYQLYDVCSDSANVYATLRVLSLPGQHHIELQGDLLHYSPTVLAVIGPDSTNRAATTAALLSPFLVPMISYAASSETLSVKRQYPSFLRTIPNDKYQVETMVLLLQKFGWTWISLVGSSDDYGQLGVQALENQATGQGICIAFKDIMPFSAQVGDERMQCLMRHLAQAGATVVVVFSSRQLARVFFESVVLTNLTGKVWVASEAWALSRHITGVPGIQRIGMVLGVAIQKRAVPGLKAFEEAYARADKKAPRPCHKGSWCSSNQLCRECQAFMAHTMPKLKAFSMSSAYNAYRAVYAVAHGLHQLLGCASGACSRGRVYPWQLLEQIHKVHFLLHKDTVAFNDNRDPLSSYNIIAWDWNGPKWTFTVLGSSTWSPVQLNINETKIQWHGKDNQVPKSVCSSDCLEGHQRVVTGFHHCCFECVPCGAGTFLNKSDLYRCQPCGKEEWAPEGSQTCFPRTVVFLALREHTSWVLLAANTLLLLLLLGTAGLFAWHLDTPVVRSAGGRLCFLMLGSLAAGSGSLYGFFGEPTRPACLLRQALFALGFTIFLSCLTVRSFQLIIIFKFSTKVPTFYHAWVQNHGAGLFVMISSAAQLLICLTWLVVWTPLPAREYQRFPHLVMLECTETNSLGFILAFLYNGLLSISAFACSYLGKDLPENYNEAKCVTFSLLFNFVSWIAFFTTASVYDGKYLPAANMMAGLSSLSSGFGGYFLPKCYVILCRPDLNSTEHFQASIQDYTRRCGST
T1 sequence (Q7RTX0 21-852): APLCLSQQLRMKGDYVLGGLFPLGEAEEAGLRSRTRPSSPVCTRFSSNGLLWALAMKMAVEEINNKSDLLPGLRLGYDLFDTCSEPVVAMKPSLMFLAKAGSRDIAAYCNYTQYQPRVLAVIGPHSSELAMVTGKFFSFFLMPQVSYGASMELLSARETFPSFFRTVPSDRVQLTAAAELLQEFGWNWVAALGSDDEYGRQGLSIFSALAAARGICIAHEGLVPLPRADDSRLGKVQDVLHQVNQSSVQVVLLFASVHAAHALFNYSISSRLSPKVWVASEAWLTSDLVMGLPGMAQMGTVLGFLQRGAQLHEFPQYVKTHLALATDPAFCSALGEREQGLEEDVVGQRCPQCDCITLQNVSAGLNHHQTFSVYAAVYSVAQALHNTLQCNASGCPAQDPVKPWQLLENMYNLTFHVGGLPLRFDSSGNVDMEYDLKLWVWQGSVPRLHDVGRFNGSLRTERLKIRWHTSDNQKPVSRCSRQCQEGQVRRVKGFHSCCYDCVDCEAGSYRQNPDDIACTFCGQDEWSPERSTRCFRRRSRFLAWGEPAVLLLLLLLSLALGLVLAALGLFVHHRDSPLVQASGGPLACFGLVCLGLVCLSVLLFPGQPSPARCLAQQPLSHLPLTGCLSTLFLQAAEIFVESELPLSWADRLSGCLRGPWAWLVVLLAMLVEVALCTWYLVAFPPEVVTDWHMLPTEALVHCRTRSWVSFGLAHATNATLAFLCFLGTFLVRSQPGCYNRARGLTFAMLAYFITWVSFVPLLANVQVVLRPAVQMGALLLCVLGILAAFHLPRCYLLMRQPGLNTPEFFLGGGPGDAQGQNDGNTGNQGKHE
Assay: Umami taste enhancement assay (EC50 ratio vs. MSG)
Type: cell-based
Excerpt: In umami taste enhancement activity assay experiments, which produce an “EC50 ratio” measurement of how effectively the amide compounds of the invention enhance the savory flavorant (typically MSG) already in a test solution. A series of measurements of the dose response is run in solutions comprising MSG alone, then a second dose response is run with MSG in combination with predetermined amounts of a candidate compound of Formula (I) at the same time.
In this assay, increasing concentrations of monosodium glutamate (ranging from 12 μM to 81 mM) were presented, in duplicates, in the presence or absence of a fixed concentration of the test compound. Typical compound concentrations tested were 30 μM, 10 μM, 3 μM, 1 μM, 0.3 μM, 0.1 μM and 0.03 μM. The relative efficacy of compounds of […] at enhancing the receptor was determined by calculating the magnitude of a shift in the EC50 for monosodium glutamate. Enhancement was defined as a ratio (EC50R) corresponding to the EC50 of monosodium glutamate, determined in the absence of the test compound, divided by the EC50 of monosodium glutamate, determined in the presence of the test compound.
Stated alternatively, “EC50 ratio” as compared to MSG is calculated based on the following definitions:
EC50 Ratio vs. MSG=EC50 (MSG)/EC50 (MSG+[Compound]) wherein “[compound]” refers to the concentration of the compound of Formula (I) used to elicit (or enhance or potentiate) the MSG dose response.
It should be noted that the EC50 ratio measured can depend somewhat on the concentration of the compound itself. Preferred savory enhancers would have a high EC50 Ratio vs. MSG at a low concentration of the compound used.

EC50 ratio (enhancement of the effectiveness of monosodium glutamate) (compound present at 0.3 μM)	EC50 ratio (enhancement of the effectiveness of monosodium glutamate) (compound present at 0.03 μM)	Compound
6.51	–	COc1ccc(CNC(=O)C(=O)NCCc2ccccn2)c(OC)c1 [Example 24, N-(2,4-Dimethoxy-benzyl)-N′-(2-pyridin-2-yl-ethyl)-oxalamide]
–	6.92	CCCC(CCC)NC(=O)c1ccc2c(c1)OCO2 [Example 1, N-(heptan-4-yl)benzo[d][1,3]dioxole-5-carboxamide]
